Columns and labels:
[1] = hairless guinea pigs, after microneedle exposure and occlusion; cited from earlier work
[2] = Transepidermal water loss (TEWL) study of microneedle pore viability with COX inhibitor gels under occlusion; type: in vivo; details: gel re-applied daily under occlusion; 5 day study, trial 2
Protocol: Two trials were completed with subject 1 and one trial was completed with subject 2. During the initial trial, subject one was tested for 7 days with only Solaraze® Gel. 100 microneedle arrays were placed on each test site and covered with gel. The gel was then protected with an occlusive backing membrane (3M™ Scotchpak™ 9733 2.05 mil polyester film, St. Paul, Minn.) and secured to the test site with Bioclusive* tape (Johnson and Johnson Medical Ltd, Gargrave, Skipton, UK). Along with gel test sites, control sites with and without microneedle insertions were tested minus gel. The control sites were treated in the same manner with gel minus the 100 microneedle insertions. The initial trial lasted for 7 days followed by a 5 day study.
In trial 2, the same procedure was performed on a different test and control sites using each of the following gel formulations: placebo, Solaraze® Gel, 3% diclofenac, 3% celecoxib, 10% ibuprofen, 10% ketoprofen, and controls with and without microneedle treatment. Each day, the protective covering was removed, areas were blotted 3 times with a Kimwipe® (Kimberly-Clark, Roswell, Ga.) to remove gel and trapped moisture and TEWL readings were made with an RG1 Evaporimeter (cyberDERM, Broomall, Pa.). The treated areas had the formula re-applied and immediately covered to prevent closure of the microneedle created pores.

[3] = used in conjunction with microneedles; cited from earlier work

Cl.Oc1ccc2c3c1O[C@H]1[C@H](O)CC[C@@]4(O)[C@@H](C2)N(CC2CC2)CC[C@]314 [6(3-naltrexol hydrochloride]
duration of significant enhancement in microneedle pore viability compared to untreated skin [1]: 48 h

O=C(O)Cc1ccccc1Nc1c(Cl)cccc1Cl [diclofenac]
enhancement in pore viability (TEWL), microneedle-treated areas versus control areas [2]: enhanced viability of microneedle pores

O=C1CC[C@@]2(O)[C@H]3Cc4ccc(O)c5c4[C@@]2(CCN3CC2CC2)[C@H]1O5 [naltrexone]
time for which steady state naltrexone concentrations remained [3]: 48 h
time until steady state naltrexone concentrations were achieved [3]: two

From patent publication US20220117884A1, “Methods and Compostitions for Enhancing the Viability of Microneedle Pores” (priority 2007, published 2022)
